Reference: ChEMBL document CHEMBL3272239, “Psychotropic agents. 3. 4-(4-Substituted piperidinyl)-1-(4-fluorophenyl)-1-butanones with potent neuroleptic activity” (J Med Chem, 1978)

How the values were obtained:
Mus musculus [1] = assay: Neuroleptic activity in po dosed STD-ddY mouse assessed as inhibition of spontaneous motor activity by measuring number of revolution of cage for 5 mins; format: functional
Mus musculus [2] = assay: Neuroleptic activity in po dosed STD-ddY mouse assessed as protection against methamphetamine-induced toxicity administered 1 hr before methamphetamine challenge measured after 24 hrs; format: functional
Rattus norvegicus [3] = assay: Inhibition of methamphetamine-induced stereotyped behavior in po dosed albino Wistar rat administered 2 hrs before methamphetamine challenge measured up to 3 hrs; format: functional
Rattus norvegicus [4] = assay: Ratio of ED50 for po dosed albino Wistar rat assessed as induction of catalepsy to ED50 for methamphetamine-induced stereotyped behavior in po dosed albino Wistar rat
Rattus norvegicus [5] = assay: Inhibition of apomorphine-induced stereotyped behavior in po dosed albino Wistar rat administered 2 hrs before apomorphine challenge measured after 20 mins; format: functional
Rattus norvegicus [6] = assay: Ratio of ED50 for po dosed albino Wistar rat assessed as induction of catalepsy to ED50 for apomorphine-induced stereotyped behavior in po dosed albino Wistar rat
Rattus norvegicus [7] = assay: Toxicity in po dosed albino Wistar rat assessed as induction of catalepsy after 8 hrs; format: organism-based; details: in vivo
[8] = Acute toxicity in po dosed STD-ddY mouse assessed as mortality up to 7 days; format: organism-based; details: in vivo
Rattus norvegicus [9] = assay: Ratio of benperidol ED50 to compound ED50 for apomorphine-induced stereotyped behavior in po dosed albino Wistar rat; format: functional
Rattus norvegicus [10] = assay: Ratio of benperidol ED50 to compound ED50 for methamphetamine-induced stereotyped behavior in po dosed albino Wistar rat; format: functional
Rattus norvegicus [11] = assay: Ratio of haloperidol ED50 to compound ED50 for apomorphine-induced stereotyped behavior in po dosed albino Wistar rat; format: functional
Rattus norvegicus [12] = assay: Ratio of haloperidol ED50 to compound ED50 for methamphetamine-induced stereotyped behavior in po dosed albino Wistar rat; format: functional

Compound | ED50 (Mus musculus [1]) [mg/kg] | ED50 (Mus musculus [2]) [mg/kg] | other results
Br.C=CCn1c(=S)n(C2CCN(CCCC(=O)c3ccc(F)cc3)CC2)c2ccccc21 | 0.87 | – | –
O=C(CCCN1CCC(n2c(C(F)(F)F)nc3ccccc32)CC1)c1ccc(F)cc1 | > 40 | – | –
CCCCc1nc2ccccc2n1C1CCN(CCCC(=O)c2ccc(F)cc2)CC1.Cl | 14 | > 3 | –
O=C(CCCN1CCC(n2c(SCC(=O)c3ccc(Cl)cc3)nc3ccccc32)CC1)c1ccc(F)cc1 | 5 | 1.6 | –
Cl.O=C(CCCN1CCC(n2c(-c3ccccc3)nc3ccccc32)CC1)c1ccc(F)cc1 | 18 | > 3 | –
CSc1nc2ccccc2n1C1CCN(CCCC(c2ccc(F)cc2)c2ccc(F)cc2)CC1 | 13 | 2.4 | –
Cl.Cn1c(=S)n(C2CCN(CCCC(=O)c3ccc(F)cc3)CC2)c2ccccc21 | 0.54 | – | –
O=C(CCCN1CCC(n2c(SCc3ccccc3)nc3ccccc32)CC1)c1ccc(F)cc1 | 1.3 | 0.76 | –
CC(=O)O.O=C(CCCN1CCC(n2c(=O)c(O)nc3ccccc32)CC1)c1ccc(F)cc1 | > 40 | > 3 | –
CCCCCCC(=O)Sc1nc2ccccc2n1C1CCN(CCCC(=O)c2ccc(F)cc2)CC1.Cl | 1 | 1.1 | –
Cc1nc2ccccc2n1C1CCN(CCCC(c2ccc(F)cc2)c2ccc(F)cc2)CC1 | 40 | > 3 | –
O=C(CCCN1CCC(O)(c2ccc(Cl)cc2)CC1)c1ccc(F)cc1 [HALOPERIDOL] | 0.8 | 0.32 | ED50 (Rattus norvegicus [3]): 0.5 mg/kg; Ratio ED50 (Rattus norvegicus [4]): 1.8; ED50 (Rattus norvegicus [5]): 0.85 mg/kg; Ratio ED50 (Rattus norvegicus [6]): 1; ED50 (Rattus norvegicus [7]): 0.88 mg/kg; LD50 at 168 h [8]: 240 mg/kg
Fc1ccc(C(CCCN2CCC(n3c(=S)[nH]c4ccccc43)CC2)c2ccc(F)cc2)cc1 | 20 | 1 | –
C#CCSc1nc2ccccc2n1C1CCN(CCCC(=O)c2ccc(F)cc2)CC1.Cl | 1.2 | 0.74 | –
O=c1[nH]c2ccccc2n1C1CCN(CCCC(c2ccc(F)cc2)c2ccc(F)cc2)CC1 [PIMOZIDE] | 7.4 | 1.1 | –
O=C(CCCSc1nc2ccccc2n1C1CCN(CCCC(=O)c2ccc(F)cc2)CC1)c1ccc(F)cc1 | 14 | > 3 | –

Compound | ED50 (Mus musculus [1]) [mg/kg] | ED50 (Mus musculus [2]) [mg/kg] | other results
CCc1nc2ccccc2n1C1CCN(CCCC(=O)c2ccc(F)cc2)CC1.Cl | 9.1 | > 3 | –
O=C(CCCN1CCC(n2c(Sc3ccccc3[N+](=O)[O-])nc3ccccc32)CC1)c1ccc(F)cc1 | 11 | – | –
Cl.O=C(CCCN1CCC(n2c(SC(=O)c3ccc(Cl)cc3)nc3ccccc32)CC1)c1ccc(F)cc1 | 0.96 | 0.83 | –
O=C(CCCN1CCC(n2cnc3ccccc32)CC1)c1ccc(F)cc1 | 4.7 | > 3 | –
OCCSc1nc2ccccc2n1C1CCN(CCCC(c2ccc(F)cc2)c2ccc(F)cc2)CC1 | 40 | > 3 | –
Cc1nc2ccccc2n1C1CCN(CCCC(=O)c2ccc(F)cc2)CC1 | 0.85 | 0.81 | –
Cc1nc2ccccc2n(C2CCN(CCCC(=O)c3ccc(F)cc3)CC2)c1=O | 14.1 | > 3 | –
CCSc1nc2ccccc2n1C1CCN(CCCC(=O)c2ccc(F)cc2)CC1.Cl | 5 | > 3 | –
CCOC(=O)Sc1nc2ccccc2n1C1CCN(CCCC(=O)c2ccc(F)cc2)CC1 | 0.36 | 0.65 | –
Br.CC(C)Sc1nc2ccccc2n1C1CCN(CCCC(=O)c2ccc(F)cc2)CC1 | 4.4 | 1.6 | –
O=C(CCCN1CCC(n2c(=S)[nH]c3ccccc32)CC1)c1ccc(F)cc1 [TIMIPERONE] | 0.6 | 0.55 | Ratio ED50 (Rattus norvegicus [9]): 6.5; ED50 (Rattus norvegicus [3]): 0.054 mg/kg; Ratio ED50 (Rattus norvegicus [4]): 6.1; Ratio ED50 (Rattus norvegicus [10]): 8.1; ED50 (Rattus norvegicus [5]): 0.095 mg/kg; Ratio ED50 (Rattus norvegicus [11]): 8.9; Ratio ED50 (Rattus norvegicus [12]): 9.3; Ratio ED50 (Rattus norvegicus [6]): 4.5; ED50 (Rattus norvegicus [7]): 0.33 mg/kg; LD50 at 168 h [8]: 500 mg/kg
O=C(CCCN1CCC(n2nnc3ccccc32)CC1)c1ccc(F)cc1 | 33 | – | –
O=C(CCCN1CCC(n2c(O)nc3ccccc32)CC1)c1ccc(F)cc1 [BENPERIDOL] | 0.56 | 0.63 | ED50 (Rattus norvegicus [3]): 0.44 mg/kg; Ratio ED50 (Rattus norvegicus [4]): 2.1; ED50 (Rattus norvegicus [5]): 0.62 mg/kg; Ratio ED50 (Rattus norvegicus [6]): 1.5; ED50 (Rattus norvegicus [7]): 0.92 mg/kg
O=C(CCCN1CCC(n2c(SCCO)nc3ccccc32)CC1)c1ccc(F)cc1 | 6.9 | > 3 | –
Br.CCOC(=O)CSc1nc2ccccc2n1C1CCN(CCCC(=O)c2ccc(F)cc2)CC1 | > 40 | – | –
CSc1nc2ccccc2n1C1CCN(CCCC(=O)c2ccc(F)cc2)CC1 | 6.2 | 0.68 | ED50 (Rattus norvegicus [3]): 0.2 mg/kg; Ratio ED50 (Rattus norvegicus [4]): 5.5; ED50 (Rattus norvegicus [5]): 0.41 mg/kg; Ratio ED50 (Rattus norvegicus [6]): 2.7; ED50 (Rattus norvegicus [7]): 1.1 mg/kg; LD50 at 168 h [8]: 930 mg/kg
